Data published in patent US20210062263A1, “A CLINICAL […]” (priority 2016, published 2021).

How the values were obtained:
follistatin [1] = experiment: Serum follistatin levels (RIA) in wounded male mice; assay type: in vivo
Method: (§1) Implants were prepared by cutting medical grade Silastic (polydimethylsiloxane) tubing (1.5 mm inner diameter, 2.3 mm outer diameter, Aunet Pty Ltd, WA, Australia) to the desired length (1 cm long) and sealing one end with Multi-Purpose Sealant (Dow Corning RTV Sealant). After 24 hours each tube was packed with either crystalline testosterone (Sigma #T-1500) or left empty (vehicle implant). The open end was then sealed and implants were allowed to dry for at least 24 hours prior to surgical implantation. The implant size was considered to be the length of tubing containing testosterone. Prior to subcutaneous insertion, implants were sterilized in absolute ethanol for 10 minutes which also removed any androgen adhering to its external surface. Each testosterone or vehicle implant was inserted subcutaneously via a 5-mm nape incision in intact and castrated male mice three weeks before the wound healing experiments and the incision site was closed with 5/0 sutures.
(§2) Under anesthesia, the dorsal flanks of each 9 weeks old mouse (n=6/group) were carefully shaved and cleansed with 70% v/v ethanol. To create wounds, full-thickness, parasagittal linear incisions (1 cm long) were made through the skin and underlying the panniculus carnosus muscle on each flank and each wound was closed using two 5/0 silk sutures placed 3 mm from each end of the wound. Post operatively, all animals received analgesia to minimize pain, were allowed to recover on a heated pad and then housed in groups of four animals per cage. Incisions were examined and assessed on days 3, 5, 7 and post-wounding.
Blood samples were collected between 10:00 and 10:30 am by cardiac puncture at different time points (0d, 3d, 5d, 7d or 14d) according to the experimental protocol. The samples were allowed to coagulate for 30 minutes then centrifuged at 10,000 g for 10 minutes to collect serum which was stored at −20° C. until assayed.
Serum and skin follistatin levels were measured by RIA using human recombinant follistatin 288 as standard and as tracer following labeling with I^125 (O'Conner et al. (1999) Hum Reprod 14(3):827-832). The assay sensitivity for serum follistatin was 1.52 ng/ml, and the intra-assay variation was 5.4-5.7%.

activin A = experiment: Cutaneous activin A levels (ELISA) after wounding; assay type: in vivo, mice; conditions: testosterone replacement, day 3 post-wounding
Description: as §2
(§3) Following exsanguination, anesthetized animals were killed by cervical dislocation. Full-thickness specimens of the skin wound, consisting of the entire wound scar surrounded by a border of about 3-mm, were excized and bisected. Half of each sample was frozen at −80° C. and the other half was fixed in 4% v/v paraformaldehyde (Sigma-Aldrich, NSW, Australia) and processed for histology. Unwounded skin was obtained from the dorsum of the trunk near the tail of each animal to determine protein levels. […]
Activin A levels were measured in serum and skin using a specific ELISA and human recombinant activin A as a standard, according to manufacturer's instructions (Oxford Bioinnovations, Cherwell, Oxfordshire, UK) [Knight et al. (1996) J Endocrinol 148(2):267-279]. […]

dorsal skin wound = experiment: Histopathological measurements of skin wounds; assay type: in vivo, mice
Method: as §1, §2
Following exsanguination, anesthetized animals were killed by cervical dislocation. Full-thickness specimens of the skin wound, consisting of the entire wound scar surrounded by a border of about 3-mm, were excized and bisected. Half of each sample was frozen at −80° C. and the other half was fixed in 4% v/v paraformaldehyde (Sigma-Aldrich, NSW, Australia) and processed for histology. Unwounded skin was obtained from the dorsum of the trunk near the tail of each animal to determine protein levels.
Transverse histological sections (5 μm) of skin from the center of each wound were stained with hematoxylin and eosin (H&E) [Harris' Hematoxylin, 1% v/v Eosin, Amber Scientific, Midvale, Wash., Australia] and analyzed by light microscopy. All histological analyses were performed blind without knowledge of the identity of each specimen. Histological sections were scanned for assessment using Aperio ScanScope AT Turbo Scanner (Aperio, CA, USA) and the electronic slides (eSlides) were visualized and analyzed using Aperio ImageScope.
Wound width was calculated by measuring the distance between the unwounded dermis margins at the epidermis-dermis junction (Gilliver et al. (2008) endocrinology 149(11):5747-5757). When the width was <0.2 mm, the wound was considered closed. Reepithelialization was assessed using the following scoring method: 0, absent; 1, present, covering <50% of the wound; 2, present, covering >50% and <100% of the wound; 3, present, covering 100% with irregular thickness; 4, present, covering 100% with regular thickness (Steed et al. (1997) 77(3):575-586). To determine epidermal hyperplasia, the mean distance between the stratum granulosum and the epidermal-dermal junction of each wound site was calculated (10 measurements per section, using a 10× objective). Unwounded skin was used as control.
Sections from day 7 and day 14 wounds were also stained with Masson's trichrome to highlight connective tissue. The area of granulation tissue was measured by defining the area located between the basal surface of the epidermis and the panniculus carnosus below. Collagen orientation was assessed using the following scoring method: 1, basket-weave fibers; 2, basket-weave >parallel fibers; 3, parallel fibers >basket-weave fibers; 4, parallel fibers (Ashcroft and Mills (2002) J Clin Invest 110(5):615-624).

TNF-α = experiment: Cutaneous TNF-α levels (ELISA) after wounding; assay type: in vivo, mice
Method: (§4) Frozen samples of wounded and unwounded skin were homogenized (Janke & Kunkel Ultraturrax T25 homogenizer, IKA Labortechnik, Staufen, Germany) in 1% v/v protease inhibitor (Calbiochem, San Diego, Calif.) and the homogenates were centrifuged at 4° C. to remove debris prior to assay.
(§5) Cutaneous levels of IL-6 and TNF-α were measured in skin samples using ELISAs according to the manufacturer's instructions (R&D Systems Inc, MN, USA). The sensitivity of the IL-6 ELISA was 5.97 pg/ml; the intra-assay variation was of 3.4% and the inter-assay variation was 4.1%. Mouse recombinant was used as a standard for the TNF-α assay; the sensitivity of the ELISA was 9.04 pg/ml; the intra-assay variation was of 12.8% and the inter-assay variation was 12.7%. The concentrations are expressed per mg of tissue (wet weight).

IL-6 = experiment: Cutaneous IL-6 levels (ELISA) after wounding; assay type: in vivo, mice
Method: as §4, §5

follistatin [2] = experiment: Cutaneous follistatin levels (RIA) after wounding; assay type: in vivo, mice
Description: as §2, §3
Serum and skin follistatin levels were measured by RIA using human recombinant follistatin 288 as standard and as tracer following labeling with I^125 (O'Conner et al. (1999) Hum Reprod 14(3):827-832). […]

C[C@]12CC[C@H]3[C@@H](CCC4=CC(=O)CC[C@@]43C)[C@@H]1CC[C@@H]2O [testosterone]
Serum Follistatin (follistatin [1]; Castrated + T males, 0 d): 4.3 ± 0.5 ng/mL | Serum Follistatin (follistatin [1]; Castrated + T males, 3 d): 4.1 ± 0.3 ng/mL | Serum Follistatin (follistatin [1]; Castrated + T males, 5 d): 3.9 ± 0.2 ng/mL | Serum Follistatin (follistatin [1]; Castrated + T males, 7 d): 4.5 ± 0.3 ng/mL | Serum Follistatin (follistatin [1]; Castrated + T males, 14 d): 4.5 ± 0.5 ng/mL | Serum Follistatin (follistatin [1]; Intact + T males, 0 d): 3.6 ± 0.03 ng/mL | Serum Follistatin (follistatin [1]; Intact + T males, 3 d): 3.8 ± 0.3 ng/mL | Serum Follistatin (follistatin [1]; Intact + T males, 5 d): 3.8 ± 0.1 ng/mL | Serum Follistatin (follistatin [1]; Intact + T males, 7 d): 3.8 ± 0.4 ng/mL | Serum Follistatin (follistatin [1]; Intact + T males, 14 d): 3.6 ± 0.2 ng/mL | increase in cutaneous levels of activin A (activin A; castrated males): 17 fold | cutaneous levels of activin A relative to castrated males (activin A): twice | collagen fiber orientation (dorsal skin wound; castrated males treated with testosterone, day 14 post-wounding): predominant parallel orientation | wound width (dorsal skin wound; castrated males, testosterone replacement vs castrated group, days 3 and 5 post-wounding): significantly increased wound widths | re-epithelialization (dorsal skin wound; castrated+T group, day 5 post-wounding): re-epithelialization was complete | epidermal thickness (dorsal skin wound; castrated+T group, days 3, 5 and 7 post-wounding): increased thickness of the epidermis | wound width (dorsal skin wound; intact males treated with testosterone vs intact group, day 3 post-wounding): decreased wound width | wound closure (summary) (dorsal skin wound; male mice): delayed wound closure | TNF-α skin levels (TNF-α; castrated males, testosterone replaced vs castrated males, days 5 and 7): significantly higher | TNF-α skin levels (TNF-α; castrated males, testosterone replaced, day 7 post-wounding): significantly increased | TNF-α skin levels (TNF-α; intact males given testosterone vs intact group, day 3 post-wounding): significantly increased | cutaneous IL-6 relative to castrated group (IL-6; castrated males, testosterone replacement, day 3 post-wounding): twice | cutaneous IL-6 relative to intact male group (IL-6; intact males treated with testosterone, day 3 post-wounding): almost twice | basal IL-6 levels in skin (IL-6; intact males treated with testosterone, unwounded skin): increased basal IL-6 levels | follistatin levels in skin (follistatin [2]; castrated testosterone replacement group vs vehicle group, day 3 post-wounding): significantly higher | follistatin levels in skin (follistatin [2]; intact males given testosterone vs intact males that received vehicle): significantly lower
